Assay results as given in ChEMBL document CHEMBL1151652, “Constituents of Erysimum inconspicuum. Two sulfur-containing lactone compounds” (1985).
Converted amounts (≈) assume the structure as drawn.

Tested on: KB
Assay: Cytotoxicity against human KB cells
Type: functional
Details: read-out: ED50 (the source's name)

| SMILES | EC50 [mg/L] |
| --- | --- |
| C[S+]([O-])CC[C@H]1CCC(=O)O1 (stereo partly drawn) [ERYSULFOXIDE] | 2.3 (≈ 13.1 µM) |
| C[C@]12CC[C@H]3[C@@H](CC[C@]4(O)C[C@@H](O)CC[C@]34C=O)[C@@]1(O)CC[C@@H]2C1=CC(=O)OC1 [STROPHANTHIDIN] | 0.44 (≈ 1.09 µM) |
| CS(=O)(=O)CC[C@H]1CCC(=O)O1 [ERYSULFONE] | 21 (≈ 109 µM) |
